Data reported in patent publication US20180057505A1, “BICYCLIC HETEROARYL COMPOUNDS USEFUL AS INHIBITORS OF THE PAR-2 SIGNALING PATHWAY” (VERTEX PHARMACEUTICALS INCORPORATED, priority 2015, published 2018).
pIC50: −log10 of the molar value.

Key:
Format in all cases: cell-based
[1] = target: T1, PAR2 (HT-29 cells) (Homo sapiens, UniProt P55085); assay: Ca FLIPR TETRA assay, ANTAGONIST mode, activator 8 μM SLIGKV; details: HT-29 cells, activator 8 μM SLIGKV
T1 construct: host or cells: HT-29
T1 sequence (P55085 26-397): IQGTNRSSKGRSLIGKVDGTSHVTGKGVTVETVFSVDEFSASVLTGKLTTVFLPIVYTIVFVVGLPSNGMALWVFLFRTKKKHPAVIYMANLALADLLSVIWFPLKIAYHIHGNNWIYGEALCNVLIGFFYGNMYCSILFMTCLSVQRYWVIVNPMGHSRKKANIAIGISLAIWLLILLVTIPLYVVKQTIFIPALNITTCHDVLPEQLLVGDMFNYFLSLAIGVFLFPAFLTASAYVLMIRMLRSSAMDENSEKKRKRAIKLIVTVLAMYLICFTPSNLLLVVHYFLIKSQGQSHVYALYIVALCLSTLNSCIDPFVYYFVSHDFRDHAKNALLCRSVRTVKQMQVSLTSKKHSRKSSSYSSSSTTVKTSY
Procedure, shortened: (§1)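 Antagonist-mode FLIPR Tetra Ca2+ read: dye-loaded HT-29 cells preincubated 30 min at r.t. with compound (first read checks agonism alone), then challenged with final 3.1 U/mL trypsin, 8 μM SLIGKV, 1 U/mL thrombin or 0.6 μM UTP. Cells plated overnight in 1% FBS McCoy's; Calcium 5 loading 45 min 37 °C plus 15 min r.t.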

[2] = target: T1, PAR2 (HT-29 cells); assay: Ca FLIPR TETRA assay, ANTAGONIST mode, activator 3.1 U/mL trypsin; details: HT-29 cells, activator 3.1 U/mL trypsin
Procedure, shortened: as §1

[3] = tested on: Thrombin-stimulated Ca2+ response in HT-29 cells; assay: Ca FLIPR TETRA assay, ANTAGONIST mode, activator 1 U/mL Thrombin; details: HT-29 cells, activator 1 U/mL Thrombin
Procedure, shortened: as §1

[4] = tested on: UTP-stimulated Ca2+ response in HT-29 cells; assay: Ca FLIPR TETRA assay, ANTAGONIST mode, activator 0.6 μM UTP; details: for pIC50: HT-29 cells, activator 0.6 μM UTP
Procedure, shortened: as §1

[5] = Method A: maximal concentration of antagonist 0.1, 1 or 2 μM
[6] = maximal antagonist concentration per Method (A: 0.1, 1 or 2 μM; B: 50 μM)

Compound | pIC50 [1, 5] | pIC50 [2, 5] | pIC50 ([3]; Homo sapiens) | pIC50 ([4]; Homo sapiens) | pIC50 [3] | pIC50 [4] | pIC50 [1, 6] | pIC50 [2, 6] | UTP, % @ 50 ([4]; @ 50 (μM)) [% @ 50]
CC(C)(C)c1cc(-c2ccc(Cl)c(F)c2)nc2cc(C(=O)N3CCN(c4cccnn4)C(=O)C3(C)C)oc12 [Example I-357] | 8.08 | 8.00 | < 5.70 | < 5.70 | – | – | – | – | –
CC(C)(C)c1cc(-c2ccc(F)cc2)nc2cc(C(=O)N3CCN(c4cnc(C(=O)O)cn4)CC3(C)C)oc12 [Example I-421] | 8.82 | 8.47 | – | – | 6.22 | 6.12 | – | – | –
CNS(=O)(=O)CCC(=O)N1CCN(C(=O)c2cc3nc(C4CCC(F)(F)CC4)cc(C(C)(C)C)c3o2)C(C)(C)C1 [Example I-226] | – | – | < 5.70 | < 5.70 | – | – | 7.12 | 6.64 | –
Cc1cccc(C2CCN(C(=O)c3cc4nc(-c5ccc(Cl)cc5)cc(C(C)(C)C)c4o3)C(C)(C)C2)n1 (centres unmarked) [Example I-383] | 7.72 | 7.92 | – | – | < 5.70 | < 5.70 | – | – | –
CC(C)(C)c1cc(N2CCC(C#N)CC2)nc2cc(C(=O)N3CCN(C(=O)[C@H]4C[C@](C)(O)C4)CC3(C)C)oc12 [Example I-438] | 6.49 | 6.38 | < 5.70 | < 5.70 | – | – | – | – | –
CC(C)(C)c1cc(-c2ccc(Cl)c(F)c2)nc2cc(C(=O)N3CCC(c4ncc(C(=O)O)cn4)CC3(C)C)oc12 (centres unmarked) [Example I-428] | 9.22 | 9.15 | – | – | 5.80 | 5.77 | – | – | –
CC(C)(C)c1cc(-c2ccc(Cl)cc2)nc2cc(C(=O)N3CCN(c4cccnc4)CC3(C)C)oc12 [Example I-269] | – | – | < 5.70 | < 5.70 | – | – | 7.24 | 7.39 | –
Cc1cn[nH]c1N1CCN(C(=O)c2cc3nc(-c4ccc(F)cc4)cc(C(C)(C)C)c3o2)C(C)(C)C1=O [Example I-247] | – | – | < 5.70 | < 5.70 | – | – | 7.92 | 7.70 | –
Cc1ccnc(N2CCN(C(=O)c3cc4nc(-c5ccc(Cl)c(F)c5)cc(C(C)(C)C)c4o3)C(C)(C)C2=O)n1 [Example I-276] | – | – | < 5.70 | < 5.70 | – | – | 8.92 | 8.74 | –
CC(C)(C)c1cc(C2CC3(CCC3)C2)nc2cc(C(=O)N3CCN(c4ccc(C(=O)O)cn4)CC3(C)C)oc12 [Example I-443] | 9.30 | 9.22 | < 5.70 | 5.80 | – | – | – | – | –
COc1nc(N2CCN(C(=O)c3cc4nc(-c5ccc(Cl)c(F)c5)cc(C(C)(C)C)c4o3)C(C)(C)C2)ccc1C(=O)O [Example I-498] | 9.52 | 9.52 | < 5.70 | < 5.70 | – | – | – | – | –
CC(C)(C)c1cc(-c2ccc(Cl)cc2)nc2cc(C(=O)N3CCN(C(=O)[C@@H]4CC[C@H](C(=O)O)C4)CC3(C)C)oc12 [Example I-536] | 8.64 | 8.66 | < 5.70 | < 5.70 | – | – | – | – | –
CC(C)(C)c1cc(-c2ccc(Cl)c(F)c2)nc2cc(C(=O)N3CCN(C(=O)c4ncn[nH]4)CC3(C)C)oc12 [Example I-181] | – | – | < 6.00 | < 6.00 | – | – | 9.05 | 8.80 | –
CC1(C)CCC(c2cc(C(C)(C)C)c3oc(C(=O)N4CCN(C(=O)CCC(=O)O)CC4(C)C)cc3n2)CC1 [Example I-418] | 8.68 | 8.25 | < 5.90 | < 5.90 | – | – | – | – | –
COc1ccc(N2CCN(C(=O)c3cc4nc(-c5ccc(Cl)c(F)c5)cc(C(C)(C)C)c4o3)C(C)(C)C2)nc1C(=O)O [Example I-482] | 9.70 | 9.70 | < 5.70 | 5.92 | – | – | – | – | –
CC(C)(C)c1cc(-c2ccc(Cl)c(F)c2)nc2cc(C(=O)N3CCN(c4ncc(F)cc4C(=O)O)CC3(C)C)oc12 [Example I-518] | 8.00 | 7.77 | < 5.70 | < 5.70 | – | – | – | – | –
CC(C)(C)c1cc(-c2ccc(Cl)c(F)c2)nc2cc(C(=O)N3CCN(c4ccncc4)C(=O)C3(C)C)oc12 [Example I-327] | 8.00 | 7.92 | < 5.70 | < 5.70 | – | – | – | – | –
C[C@H]1CN(C(=O)c2cc3nc(-c4ccc(F)cc4)cc(C4(C)CC4)c3o2)CCN1C(=O)C(C)(C)O [Example I-109] | – | – | 4.92 | 4.96 | – | – | 5.64 | 5.47 | –

Compound | pIC50 [1, 5] | pIC50 [2, 5] | pIC50 ([3]; Homo sapiens) | pIC50 ([4]; Homo sapiens) | pIC50 [3] | pIC50 [4] | pIC50 [1, 6] | pIC50 [2, 6] | UTP, % @ 50 ([4]; @ 50 (μM)) [% @ 50]
CC(C)c1cc(-c2ccc(F)cc2)nc2cc(C(=O)N3CCN(C(=O)c4ccn(C)n4)CC3(C)C)oc12 [Example I-141] | – | – | < 6.00 | < 6.00 | – | – | 8.49 | 8.38 | –
COc1cc(N2CCN(C(=O)c3cc4nc(-c5ccc(Cl)c(F)c5)cc(C(C)(C)C)c4o3)C(C)(C)C2)ncc1C(=O)O [Example I-534] | 9.70 | 10.00 | < 5.70 | < 5.70 | – | – | – | – | –
CC(C)c1cc(-c2ccc(F)cc2)nc2cc(C(=O)N3CCN(C(=O)[C@H]4CCCO4)CC3(C)C)oc12 [Example I-75] | – | – | 4.51 | 4.64 | – | – | 7.62 | 6.85 | –
CC(Oc1ccccc1)C(=O)N1CCN(C(=O)c2cc3nc(-c4ccc(F)cc4)cc(C(C)C)c3o2)C(C)(C)C1 (centres unmarked) [Example I-67] | – | – | < 4.30 | < 4.30 | – | – | 8.28 | 8.13 | –
[2H]C([2H])([2H])N1CCN(C(=O)c2cc3nc(C4CCC(F)(F)CC4)cc(C(C)(C)C)c3o2)C(C)(C)C1=O [Example I-307] | 6.91 | 6.68 | < 5.70 | < 5.70 | – | – | – | – | –
CC(C)(C)c1cc(-c2ccc(Cl)c(F)c2)nc2cc(C(=O)N3CCN(c4ccncn4)CC3(C)C)oc12 [Example I-412] | 7.88 | 7.82 | < 5.70 | < 5.70 | – | – | – | – | –
Cc1cc(N2CCN(C(=O)c3cc4nc(-c5ccc(Cl)c(F)c5)cc(C(C)(C)C)c4o3)C(C)(C)C2=O)[nH]n1 [Example I-284, 4-[7-tert-butyl-5-(4-chloro-3-fluoro-phenyl)furo[3,2-b]pyridine-2-carbonyl]-3,3-dimethyl-1-(3-methyl-1H-pyrazol-5-yl)piperazin-2-one] | – | – | < 5.70 | < 5.70 | – | – | 7.89 | 7.84 | –
CC(C)c1cc(-c2ccc(F)cc2)nc2sc(C(=O)N3CCN(C(=O)[C@H](O)CC(C)(C)C)CC3(C)C)nc12 [Example I-132] | – | – | < 4.30 | < 4.30 | – | – | 8.19 | 8.05 | –
CC(C)(C)CC(O)C(=O)N1CCN(C(=O)c2cc3nc(-c4ccc(F)cc4)cc(C4(C)CC4)c3o2)C(C)(C)C1 (centres unmarked) [Example I-38] | – | – | < 4.30 | 4.41 | – | – | 8.46 | 8.51 | –
CC(C)c1cc(-c2ccc(F)cc2)nc2cc(C(=O)N3CCN(C(=O)C4CC4(F)F)CC3(C)C)oc12 (single isomer, unassigned) [Example I-76] | – | – | – | – | < 4.30 | – | 7.48 | 7.00 | 56
CC(C)(C)c1cc(-c2ccc(Cl)cc2)nc2cc(C(=O)N3CCN(C(=O)[C@@H]4CCS(=O)(=O)N4)CC3(C)C)oc12 [Example I-474] | 7.41 | 7.28 | < 5.70 | < 5.70 | – | – | – | – | –
CC(C)c1cc(-c2ccc(F)cc2)nc2sc(C(=O)N3CCNC(=O)C3(C)C)nc12 [Example I-131] | – | – | 4.72 | 4.92 | – | – | 7.18 | 7.17 | –
CC(C)(C)c1cc(-c2ccc(Cl)c(F)c2)nc2cc(C(=O)N3CCN(c4ccnnc4)CC3(C)C)oc12 [Example I-348] | 7.17 | 7.42 | < 5.70 | < 5.70 | – | – | – | – | –
Cc1cc(N2CCN(C(=O)c3cc4nc(C5CCC(C)(C)CC5)cc(C(C)(C)C)c4o3)C(C)(C)C2=O)n[nH]1 [Example I-309] | 7.49 | 7.40 | < 5.70 | < 5.70 | – | – | – | – | –
CC(C)[C@@H](O)C(=O)N1CCN(C(=O)c2cc3nc(-c4ccc(F)cc4)cc(C4(C)CC4)c3o2)C(C)(C)C1 [Example I-32] | – | – | 4.96 | 5.17 | – | – | 8.23 | 8.34 | –
CC(C)(C)c1cc(N2CCC(C(C)(C)O)CC2)nc2cc(C(=O)N3CCN(C(=O)[C@H]4C[C@](C)(O)C4)CC3(C)C)oc12 [Example I-442] | < 5.70 | < 5.70 | < 5.70 | < 5.70 | – | – | – | – | –
Cc1nc(N2CCN(C(=O)c3cc4nc(-c5ccc(Cl)c(F)c5)cc(C(C)(C)C)c4o3)C(C)(C)C2)oc1C(=O)O [Example I-476] | 9.15 | 8.80 | < 6.30 | < 6.30 | – | – | – | – | –
